B1: Endoplasmic reticulum aminopeptidase 1 (Homo sapiens), Q9NZ08 (protein)
chain: MVFLPLKWSLATMSFLLSSLLALLTVSTPSWCQSTEASPKRSDGTPFPWNKIRLPEYVIPVHYDLLIHANLTTLTFWGTTKVEITASQPTSTIILHSHHLQISRATLRKGAGERLSEEPLQVLEHPRQEQIALLAPEPLLVGLPYTVVIHYAGNLSETFHGFYKSTYRTKEGELRILASTQFEPTAARMAFPCFDEPAFKASFSIKIRREPRHLAISNMPLVKSVTVAEGLIEDHFDVTVKMSTYLVAFIISDFESVSKITKSGVKVSVYAVPDKINQADYALDAAVTLLEFYEDYFSIPYPLPKQDLAAIPDFQSGAMENWGLTTYRESALLFDAEKSSASSKLGITMTVAHELAHQWFGNLVTMEWWNDLWLNEGFAKFMEFVSVSVTHPELKVGDYFFGKCFDAMEVDALNSSHPVSTPVENPAQIREMFDDVSYDKGACILNMLREYLSADAFKSGIVQYLQKHSYKNTKNEDLWDSMASICPTDGVKGMDGFCSRSQHSSSSSHWHQEGVDVKTMMNTWTLQKGFPLITITVRGRNVHMKQEHYMKGSDGAPDTGYLWHVPLTFITSKSDMVHRFLLKTKTDVLILPEEVEWIKFNVGMNGYYIVHYEDDGWDSLTGLLKGTHTAVSSNDRASLINNAFQLVSIGKLSIEKALDLSLYLKHETEIMPVFQGLNELIPMYKLMEKRDMNEVETQFKAFLIRLLRDLIDKQTWTDEGSVSERMLRSQLLLLACVHNYQPCVQRAEGYFRKWKESNGNLSLPVDVTLAVFAVGAQSTEGWDFLYSKYQFSLSSTEKSQIEFALCRTQNKEKLQWLLDESFKGDKIKTQEFPQILTLIGRNPVGYPLAWQFLRKNWNKLVQKFELGSSSIAHMVMGTTNQFSTRTRLEEVKGFFSSLKENGSQLRCVQQTIETIEENIGWMDKNFDKIRVWLQSEKLERM

How the values were obtained:
[1] = molecular target: T1, Endoplasmic reticulum aminopeptidase 1 (Homo sapiens, UniProt Q9NZ08); experiment: Inhibition of ERAP1 (unknown origin) using L-Rho-Succ-FKARKF as substrate
Aminopeptidase N = Aminopeptidase N (Homo sapiens, UniProt P15144); experiment: Inhibition of APN (unknown origin) using Ala-AMC as substrate
Chain of Aminopeptidase N (P15144 whole entry): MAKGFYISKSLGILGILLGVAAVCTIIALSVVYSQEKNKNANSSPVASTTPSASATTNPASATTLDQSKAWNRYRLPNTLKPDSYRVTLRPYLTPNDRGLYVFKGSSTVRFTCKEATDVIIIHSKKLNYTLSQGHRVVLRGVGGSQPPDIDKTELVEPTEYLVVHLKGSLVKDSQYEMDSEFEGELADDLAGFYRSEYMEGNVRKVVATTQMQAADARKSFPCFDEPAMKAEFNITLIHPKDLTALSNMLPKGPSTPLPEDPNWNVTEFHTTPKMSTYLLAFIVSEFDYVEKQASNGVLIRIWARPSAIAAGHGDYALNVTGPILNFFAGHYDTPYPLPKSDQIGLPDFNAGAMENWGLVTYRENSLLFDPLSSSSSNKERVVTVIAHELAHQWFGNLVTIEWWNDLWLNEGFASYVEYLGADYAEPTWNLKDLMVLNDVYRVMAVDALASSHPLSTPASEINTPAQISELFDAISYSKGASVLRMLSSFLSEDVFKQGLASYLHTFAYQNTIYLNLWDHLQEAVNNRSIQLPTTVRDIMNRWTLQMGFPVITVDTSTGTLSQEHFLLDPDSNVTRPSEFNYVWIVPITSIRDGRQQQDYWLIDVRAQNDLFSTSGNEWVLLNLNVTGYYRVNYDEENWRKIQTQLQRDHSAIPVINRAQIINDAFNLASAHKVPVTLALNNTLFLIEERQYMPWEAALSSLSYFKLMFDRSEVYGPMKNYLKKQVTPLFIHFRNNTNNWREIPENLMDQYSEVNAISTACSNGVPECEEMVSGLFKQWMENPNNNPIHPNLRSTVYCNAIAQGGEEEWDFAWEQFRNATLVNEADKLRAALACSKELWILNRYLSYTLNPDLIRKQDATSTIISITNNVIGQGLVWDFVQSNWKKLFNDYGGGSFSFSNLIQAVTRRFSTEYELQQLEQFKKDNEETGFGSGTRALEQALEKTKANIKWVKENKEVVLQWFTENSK

[2] = molecular target: Endoplasmic reticulum aminopeptidase 2 (Homo sapiens, UniProt Q6P179); experiment: Inhibition of ERAP2 (unknown origin) using Arg-AMC as substrate
Chain of Endoplasmic reticulum aminopeptidase 2 (Q6P179 whole entry): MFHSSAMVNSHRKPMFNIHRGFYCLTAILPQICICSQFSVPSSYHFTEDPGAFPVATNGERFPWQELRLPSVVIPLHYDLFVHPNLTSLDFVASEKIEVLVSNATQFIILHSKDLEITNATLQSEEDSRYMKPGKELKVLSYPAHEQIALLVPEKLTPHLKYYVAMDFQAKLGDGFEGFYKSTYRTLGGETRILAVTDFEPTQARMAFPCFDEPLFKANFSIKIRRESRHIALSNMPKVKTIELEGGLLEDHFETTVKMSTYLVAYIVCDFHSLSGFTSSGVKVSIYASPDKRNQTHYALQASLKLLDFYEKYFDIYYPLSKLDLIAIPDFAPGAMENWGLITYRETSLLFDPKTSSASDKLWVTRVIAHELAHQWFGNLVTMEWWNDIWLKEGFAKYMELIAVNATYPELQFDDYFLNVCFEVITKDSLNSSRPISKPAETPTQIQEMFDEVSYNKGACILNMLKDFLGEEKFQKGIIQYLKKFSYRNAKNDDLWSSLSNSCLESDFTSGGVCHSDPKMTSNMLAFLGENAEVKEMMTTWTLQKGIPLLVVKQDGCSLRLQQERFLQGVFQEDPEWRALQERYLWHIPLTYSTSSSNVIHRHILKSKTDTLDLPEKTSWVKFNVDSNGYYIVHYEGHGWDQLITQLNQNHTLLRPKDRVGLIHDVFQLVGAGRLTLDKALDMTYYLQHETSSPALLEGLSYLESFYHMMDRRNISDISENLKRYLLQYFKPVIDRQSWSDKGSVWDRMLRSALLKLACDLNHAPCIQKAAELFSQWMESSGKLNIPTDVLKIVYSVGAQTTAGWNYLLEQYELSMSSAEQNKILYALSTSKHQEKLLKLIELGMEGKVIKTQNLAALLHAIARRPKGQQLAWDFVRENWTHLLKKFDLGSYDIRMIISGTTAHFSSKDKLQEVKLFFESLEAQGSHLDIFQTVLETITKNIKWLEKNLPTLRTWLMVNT

[3] = molecular target: T1, Endoplasmic reticulum aminopeptidase 1
Description: Inhibition of wild type ERAP1 (unknown origin) using L-Rho-Succ-FKARKF as substrate preincubated for 15 mins followed by substrate addition and measured after 20 mins by flourescence assay

[4] = molecular target: T1, Endoplasmic reticulum aminopeptidase 1; experiment: Inhibition of ERAP1 (unknown origin) using L-Rho-Succ-AFKARKF as substrate
[5] = Permeability of compound across apical to basolateral side in human Caco2 cells; assay type: ADME, cell-based; settings: Caco-2, read-out: permeability
[6] = molecular target: T1, Endoplasmic reticulum aminopeptidase 1; settings: dose 10.0 µM, time 30.0 min
[7] = molecular target: T1, Endoplasmic reticulum aminopeptidase 1; experiment: Inhibition of ERAP1 (unknown origin) using L-Rho-(D)-Q as substrate
[8] = Microsomal stability in human liver microsomes assessed as intrinsic clearance; assay type: ADME, Microsome; settings: read-out: CLH
[9] = Microsomal stability in rat liver microsomes assessed as intrinsic clearance; assay type: ADME, Microsome; settings: read-out: CLH
Cytochrome P450 3A4 [10] = molecular target: T2, Cytochrome P450 3A4 (Homo sapiens, UniProt P08684); experiment: Inhibition of CYP3A4 (unknown origin) using midazolam as substrate; assay type: ADME
T2 sequence (P08684 whole entry): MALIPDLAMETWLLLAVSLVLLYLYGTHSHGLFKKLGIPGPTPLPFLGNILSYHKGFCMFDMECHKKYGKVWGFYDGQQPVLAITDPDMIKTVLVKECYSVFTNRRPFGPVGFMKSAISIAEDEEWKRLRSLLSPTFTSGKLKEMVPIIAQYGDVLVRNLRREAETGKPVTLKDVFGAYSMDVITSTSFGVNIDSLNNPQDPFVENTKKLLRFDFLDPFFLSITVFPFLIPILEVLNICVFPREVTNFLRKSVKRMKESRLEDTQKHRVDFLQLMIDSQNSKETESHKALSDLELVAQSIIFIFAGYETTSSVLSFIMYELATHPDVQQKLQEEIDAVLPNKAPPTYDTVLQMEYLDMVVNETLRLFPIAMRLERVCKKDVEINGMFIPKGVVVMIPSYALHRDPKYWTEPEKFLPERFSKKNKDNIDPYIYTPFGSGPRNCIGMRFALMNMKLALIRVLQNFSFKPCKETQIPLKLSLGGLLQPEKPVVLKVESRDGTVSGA

[11] = Microsomal stability in mouse liver microsomes assessed as intrinsic clearance; assay type: ADME, Microsome; settings: read-out: CLH
Cytochrome P450 3A4 [12] = molecular target: T2, Cytochrome P450 3A4; experiment: Inhibition of CYP3A4 (unknown origin) using testosterone as substrate; assay type: ADME
[13] = Stability in human hepatocytes assessed as intrinsic clearance; assay type: ADME, cell-based, Hepatocyte
[14] = substrate: CC(C)C[C@H](N)C(=O)Nc1ccc2c(c1)Oc1cc(NC(=O)[C@@H](CCC(N)=O)N[C@@H](Cc3ccccc3)C(=O)N[C@@H](CCCCN)C(=O)N[C@@H](C)C(=O)N[C@@H](CCCNC(=N)N)C(=O)N[C@@H](CCCCN)C(=O)N[C@@H](Cc3ccccc3)C(=O)O)ccc1C21OC(=O)c2ccccc21; settings: Homo sapiens
[15] = substrate: CC(C)C[C@H](N)C(=O)Nc1ccc2c(c1)Oc1cc(NC(=O)[C@@H](CCC(N)=O)N[C@@H](CCCCN)C(=O)N[C@@H](C)C(=O)N[C@@H](CCCNC(=N)N)C(=O)N[C@@H](CCCCN)C(=O)N[C@@H](Cc3ccccc3)C(=O)O)ccc1C21OC(=O)c2ccccc21; settings: Homo sapiens
Description: Inhibition of ERAP1 (unknown origin) using L-Rho-Succ-KARKF as substrate

[16] = substrate: CC(C)C[C@H](N)C(=O)Nc1ccc2c(c1)Oc1cc(NC(=O)[C@@H](CCC(N)=O)N[C@@H](C)C(=O)N[C@@H](Cc3ccccc3)C(=O)N[C@@H](CCCCN)C(=O)N[C@@H](C)C(=O)N[C@@H](CCCNC(=N)N)C(=O)N[C@@H](CCCCN)C(=O)N[C@@H](Cc3ccccc3)C(=O)O)ccc1C21OC(=O)c2ccccc21; settings: Homo sapiens
[17] = substrate: CC(C)C[C@H](N)C(=O)Nc1ccc2c(c1)Oc1cc(NC(=O)[C@H](N)CCC(N)=O)ccc1C21OC(=O)c2ccccc21; settings: Homo sapiens

| Molecule | IC50 (Aminopeptidase N) [µM] | IC50 [2] [µM] | IC50 [3] [nM] | further results |
| --- | --- | --- | --- | --- |
| CC(C)C[C@H](N)C(=O)Nc1ccc2c(c1)Oc1cc(NC(=O)[C@@H](CCC(N)=O)N[C@@H](Cc3ccccc3)C(=O)N[C@@H](CCCCN)C(=O)N[C@@H](C)C(=O)N[C@@H](CCCNC(=N)N)C(=O)N[C@@H](CCCCN)C(=O)N[C@@H](Cc3ccccc3)C(=O)O)ccc1C21OC(=O)c2ccccc21 (some centres not stated) |  |  |  | Ki [1]: 151 µM |
| O=C(NC1(C(=O)O)CCCCC1)c1cc(F)cc2cc(-c3ccc(Cl)cc3)oc12 | > 30 | > 30 | 34 |  |
| O=C(NC1(C(=O)O)CCCC1)c1cc(F)cc2cc(-c3ccc(Cl)cc3)oc12 | > 30 | > 30 | 99 |  |
| O=C(N[C@H](Cc1ccccc1)C(=O)O)c1cc(F)cc2cc(-c3ccc(Cl)cc3)oc12 | > 30 | > 30 | 262 |  |
| CN(C(=O)c1cc(F)cc2cc(-c3ccc(Cl)cc3)oc12)C(C)(C)C(=O)O |  |  | 1970 |  |
| COC(=O)C(C)(C)NC(=O)c1cc(F)cc2cc(-c3ccc(Cl)cc3)oc12 |  |  | > 10000 |  |
| CCC(C)(NC(=O)c1cc(F)cc2cc(-c3ccc(C(F)(F)F)cc3)oc12)C(=O)O (configuration not stated) |  |  | 2680 |  |
| CC(C)C[C@H](N)C(=O)Nc1ccc2c(c1)Oc1cc(NC(=O)[C@@H](CCC(N)=O)N[C@@H](C)C(=O)N[C@@H](Cc3ccccc3)C(=O)N[C@@H](CCCCN)C(=O)N[C@@H](C)C(=O)N[C@@H](CCCNC(=N)N)C(=O)N[C@@H](CCCCN)C(=O)N[C@@H](Cc3ccccc3)C(=O)O)ccc1C21OC(=O)c2ccccc21 (some centres not stated) |  |  |  | Ki [4]: 563 µM |
| O=C(N[C@@H](Cc1ccccc1)C(=O)O)c1cc(F)cc2cc(-c3ccc(Cl)cc3)oc12 | > 30 | > 30 | 1760 |  |
| CC(C)(NC(=O)c1cccc2c(Br)c(-c3ccc(Cl)cc3)oc12)C(=O)O | > 30 | > 30 | 1760 |  |
| CC(C)(NC(=O)c1cccc2cc(-c3ccc(Cl)cc3)oc12)C(=O)O | > 30 | > 30 | 1030 |  |
| O=C(NC1(C(=O)O)Cc2ccccc2C1)c1cc(F)cc2cc(-c3ccc(Cl)cc3)oc12 | > 30 | > 30 | 115 |  |
| O=C(NC1(C(=O)O)CCC1)c1cc(F)cc2cc(-c3ccc(C(F)(F)F)cc3)oc12 |  |  | 1620 | Papp A→B [5]: 18.4 ×10⁻⁶ cm/s; ΔTm [6]: 0.5 °C |
| O=C(NC1(C(=O)O)CCCCC1)c1cccc2cc(-c3ccc(Cl)cc3)oc12 | > 30 | > 30 | 120 |  |
| O=C(NC1(C(=O)O)CCCCC1)c1cccc2c(Br)c(-c3ccc(Cl)cc3)oc12 | > 30 | > 30 | 151 |  |
| O=C(NC1(C(=O)O)CC1)c1cc(F)cc2cc(-c3ccc(Cl)cc3)oc12 | > 30 | > 30 | 1120 |  |
| CC(C)C[C@H](N)C(=O)Nc1ccc2c(c1)Oc1cc(NC(=O)[C@H](N)CCC(N)=O)ccc1C21OC(=O)c2ccccc21 (some centres not stated) |  |  |  | Ki [7]: 335 µM |
| C[C@H](NC(=O)c1cc(F)cc2cc(-c3ccc(Cl)cc3)oc12)C(=O)O |  |  | 4440 |  |
| CC(C)(NC(=O)c1cc(F)cc2cc(-c3ccc(Cl)cc3)oc12)C(N)=O |  |  | > 10000 |  |
| CC(C)(NC(=O)c1cc(F)cc2cc(-c3ccc(Cl)cc3)oc12)C(=O)O | > 30 | > 30 | 698 | microsomal CLint [8]: 33 µL/min/mg; microsomal CLint [9]: 25 µL/min/mg; IC50 (Cytochrome P450 3A4 [10]): > 30 µM; microsomal CLint [11]: < 20 µL/min/mg; IC50 (Cytochrome P450 3A4 [12]): > 30 µM; Papp A→B [5]: 10.8 ×10⁻⁶ cm/s; ΔTm [6]: 0.94 °C |
| CC(C)(NC(=O)c1cc(F)cc2cc(-c3ccc(Cl)cc3)oc12)c1nnn[nH]1 |  |  | 275 |  |
| CCC(C)(NC(=O)c1cc(F)cc2cc(-c3ccc(Cl)cc3)oc12)C(=O)O (configuration not stated) | > 30 | > 30 | 377 | microsomal CLint [8]: 32 µL/min/mg; CLH [13]: 0.25 mL/h/10^6 cells; microsomal CLint [9]: < 20 µL/min/mg; IC50 (Cytochrome P450 3A4 [10]): > 30 µM; microsomal CLint [11]: 31 µL/min/mg; IC50 (Cytochrome P450 3A4 [12]): > 30 µM; Papp A→B [5]: 8.5 ×10⁻⁶ cm/s; ΔTm [6]: 0.82 °C |
| B1 |  |  |  | Km [14]: 3.1 µM; Km [15]: 3.7 µM; Km [16]: 2 µM; Km [17]: 31.8 µM |
